Experimental data taken from the NIST ThermoML archive (doi:10.1021/je100143k).
± gives the expanded uncertainty stated by the source.

Details: Liquid, Ebulliometric method (Recirculating still)

Q: With `FC(F)C(F)F` [1,1,2,2-tetrafluoroethane] as the compound, how does the “vapor or sublimation pressure” value (263.15 K) read?
A: 155 ± 10 kPa

Q: And the “vapor or sublimation pressure” value (268.15 K)?
A: 189 ± 10 kPa

Q: And the “vapor or sublimation pressure” value (278.15 K)?
A: 276 ± 10 kPa

Q: What about the “vapor or sublimation pressure” value (288.15 K) of the same compound?
A: 386 ± 10 kPa

Q: For `CCF` [fluoroethane], which “vapor or sublimation pressure” value (263.15 K) is on record?
A: 311 ± 10 kPa

Q: What about the “vapor or sublimation pressure” value (268.15 K) of the same compound?
A: 372 ± 10 kPa

Q: What about the “vapor or sublimation pressure” value (278.15 K) of the same compound?
A: 517 ± 10 kPa

Q: What about the “vapor or sublimation pressure” value (288.15 K) of the same compound?
A: 700 ± 10 kPa
